The target in the test is HCV NS3-4A serine protease (full-length NS3-4A protein) (Hepatitis C virus genotype 1a (isolate 1) (HCV), UniProt P26664). Put plainly: HCV NS3-4A protease assay. In kind it is biochemical, HCV genotype 1a. Particulars: strain HCV-1, fluorogenic peptide substrate, read-out: Protease assay Ex. 12 IC50. On the procedure: The inhibitory activity of certain compounds of Table A against HCV NS3-4A serine protease is determined in a homogenous assay using the full-length NS3-4A protein (genotype 1a, strain HCV-1) and a commercially available internally-quenched fluorogenic peptide substrate as described by Taliani, M., et al. 1996 Anal. Biochem. 240:60-67, which is incorporated by reference in its entirety.
HCV NS3-4A serine protease (full-length NS3-4A protein), sequence (P26664 1027-1657): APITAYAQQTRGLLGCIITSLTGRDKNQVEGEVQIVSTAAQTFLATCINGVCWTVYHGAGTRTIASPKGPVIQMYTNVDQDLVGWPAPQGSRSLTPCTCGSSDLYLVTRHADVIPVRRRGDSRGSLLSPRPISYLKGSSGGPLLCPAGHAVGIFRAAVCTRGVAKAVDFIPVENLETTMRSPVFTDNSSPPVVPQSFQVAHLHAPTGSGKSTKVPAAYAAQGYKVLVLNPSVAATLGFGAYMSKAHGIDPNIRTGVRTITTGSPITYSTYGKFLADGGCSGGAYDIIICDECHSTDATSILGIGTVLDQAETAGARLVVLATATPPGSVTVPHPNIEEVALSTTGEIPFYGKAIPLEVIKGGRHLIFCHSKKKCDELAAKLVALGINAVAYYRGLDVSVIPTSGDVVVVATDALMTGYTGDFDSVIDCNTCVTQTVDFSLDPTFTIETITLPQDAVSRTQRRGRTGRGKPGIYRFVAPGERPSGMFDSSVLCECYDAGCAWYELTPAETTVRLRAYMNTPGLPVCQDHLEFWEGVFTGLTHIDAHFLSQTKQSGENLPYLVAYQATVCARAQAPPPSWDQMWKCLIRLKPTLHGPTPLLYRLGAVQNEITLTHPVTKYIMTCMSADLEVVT
HCV NS3-4A serine protease (full-length NS3-4A protein), sequence (P26664 1658-1711 partner): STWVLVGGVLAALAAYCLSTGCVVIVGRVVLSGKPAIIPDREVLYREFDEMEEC

The IC50 is the concentration that inhibits the measured activity by half. Take `C=C[C@@H]1C[C@]1(NC(=O)C1C[C@@]2(CN1C(=O)[C@@H](NC(=O)[C@@H](NC(=O)[C@@H]1CCCCN1C(C)C)C(C)(C)C)C1CCOCC1)C(C)(C)C21CCC1)C(=O)NS(=O)(=O)N1CCCC1` (stereo partly drawn) [Compound 67, (5R)-7-[(2S)-2-[(N-{[(2S)-1-isopropylpiperidin-2-yl]carbonyl}-3-methyl-L-valyl)amino]-2-(tetrahydro-2H-pyran-4-yl)acetyl]-10,10-dimethyl-N-{(1R,2S)-1-[(pyrrolidin-1-ylsulfonyl)carbamoyl]-2-vinylcyclopropyl}-7-azadispiro[3.0.4.1]decane-8-carboxamide]: the IC50 came to 20 nM.

As for `C=C[C@@H]1C[C@]1(NC(=O)[C@@H]1C[C@@]2(CN1C(=O)[C@@H](NC(=O)[C@@H](NC(=O)[C@@H]1CCCCN1C(C)C)C1CCCCC1)C1CCCCC1)C(C)(C)C21CCC1)C(=O)NS(=O)(=O)N1CCCC1` [Compound 35, (5R,8S)-7-[(2S)-2-cyclohexyl-2-{[(2S)-2-cyclohexyl-2-({[(2S)-1-isopropylpiperidin-2-yl]carbonyl}amino)acetyl]amino}acetyl]-10,10-dimethyl-N-{(1R,2S)-1-[(pyrrolidin-1-ylsulfonyl)carbamoyl]-2-vinylcyclopropyl}-7-azadispiro[3.0.4.1]decane-8-carboxamide], the IC50 was 3 nM.

For the molecule `C=C[C@@H]1C[C@]1(NC(=O)[C@@H]1C[C@@]2(CN1C(=O)[C@@H](NC(=O)[C@@H](NC(=O)c1cc3ccccc3n1C)C1CCCCC1)C(C)(C)C)C(C)(C)C21CCC1)C(=O)NS(=O)(=O)N1CCCC1` [Compound 178, (5R,8S)-7-{(2S)-2-[(cyclohexyl{[(1-methyl-1H-indol-2-yl)carbonyl]amino}acetyl)amino]-3,3-dimethylbutanoyl}-10,10-dimethyl-N-{(1R,2S)-1-[(pyrrolidin-1-ylsulfonyl)carbamoyl]-2-vinylcyclopropyl}-7-azadispiro[3.0.4.1]decane-8-carboxamide], the IC50 turned out to be 80 nM.

As to `C=C[C@@H]1C[C@]1(NC(=O)[C@@H]1C[C@@]2(CN1C(=O)[C@@H](NC(=O)[C@@H](NC(=O)[C@@H]1CCCCN1C(C)C)C1CCCCC1)C(C)(C)C)C(C)(C)C21CCC1)C(=O)NS(=O)(=O)N(CC)CCF` [Compound 156, (5R,8S)-7-[(2S)-2-{[(2S)-2-cyclohexyl-2-({[(2S)-1-isopropylpiperidin-2-yl]carbonyl}amino)acetyl]amino}-3,3-dimethylbutanoyl]-N-[(1R,2S)-1-({[ethyl(2-fluoroethyl)amino]sulfonyl}carbamoyl)-2-vinylcyclopropyl]-10,10-dimethyl-7-azadispiro[3.0.4.1]decane-8-carboxamide], the IC50 stood at 1.3 nM.

Regarding `C=C[C@@H]1C[C@]1(NC(=O)[C@@H]1C[C@@]2(CN1C(=O)[C@@H](NC(=O)[C@@H](NC(=O)[C@@H]1CCCCN1C(C)C)C1CCCCC1)C(C)(C)C)C(C)(C)C21CCC1)C(=O)NS(=O)(=O)N(C)C1CC1` [Compound 53, (5R,8S)-7-[(2S)-2-{[(2S)-2-cyclohexyl-2-({[(2S)-1-isopropylpiperidin-2-yl]carbonyl}amino)acetyl]amino}-3,3-dimethylbutanoyl]-N-[(1R,2S)-1-({[cyclopropyl(methyl)amino]sulfonyl}carbamoyl)-2-vinylcyclopropyl]-10,10-dimethyl-7-azadispiro[3.0.4.1]decane-8-carboxamide], the IC50 is 1.7 nM.

On to `C=C[C@@H]1C[C@]1(NC(=O)[C@@H]1C[C@@]2(CN1C(=O)[C@@H](NC(=O)[C@@H](NC(=O)c1cnn(-c3ccccc3)c1)C1CCCCC1)C(C)(C)C)C(C)(C)C21CCC1)C(=O)NS(=O)(=O)N1CCCC1` [Compound 184, (5R,8S)-7-{(2S)-2-[(cyclohexyl{[(1-phenyl-1H-pyrazol-4-yl)carbonyl]amino}acetyl)amino]-3,3-dimethylbutanoyl}-10,10-dimethyl-N-{(1R,2S)-1-[(pyrrolidin-1-ylsulfonyl)carbamoyl]-2-vinylcyclopropyl}-7-azadispiro[3.0.4.1]decane-8-carboxamide], for which the IC50 stood at 35 nM.

In the case of `C=C[C@@H]1C[C@]1(NC(=O)[C@@H]1C[C@@]2(CN1C(=O)[C@@H](NC(=O)[C@@H](NC(=O)[C@@H]1CCCN1CC)C1CCCCC1)C(C)(C)C)C(C)(C)C21CCC1)C(=O)NS(=O)(=O)N1CCCC1` [Compound 39, (5R,8S)-7-[(2S)-2-{[(2S)-2-cyclohexyl-2-({[(2S)-1-ethylpyrrolidin-2-yl]carbonyl}amino)acetyl]amino}-3,3-dimethylbutanoyl]-10,10-dimethyl-N-{(1R,2S)-1-[(pyrrolidin-1-ylsulfonyl)carbamoyl]-2-vinylcyclopropyl}-7-azadispiro[3.0.4.1]decane-8-carboxamide], the IC50 worked out at 2.5 nM.

On to `C=C[C@@H]1C[C@]1(NC(=O)[C@@H]1C[C@@]2(CN1C(=O)[C@@H](NC(=O)[C@@H](NC(=O)[C@@H]1CCCCN1C(C)C)C1CCCCC1)C1(C)CCOCC1)C(C)(C)C21CCC1)C(=O)NS(=O)(=O)N1CCCC1` [Compound 124, (5R,8S)-7-[(2S)-2-{[(2S)-2-cyclohexyl-2-({[(2S)-1-isopropylpiperidin-2-yl]carbonyl}amino)acetyl]amino}-2-(4-methyltetrahydro-2H-pyran-4-yl)acetyl]-10,10-dimethyl-N-{(1R,2S)-1-[(pyrrolidin-1-ylsulfonyl)carbamoyl]-2-vinylcyclopropyl}-7-azadispiro[3.0.4.1]decane-8-carboxamide], for which the IC50 was 1.5 nM.

In the case of `C=C[C@@H]1C[C@]1(NC(=O)[C@@H]1C[C@@]2(CN1C(=O)[C@@H](NC(=O)[C@@H](NC(=O)OC(C)(C)C)C(C)(C)C)C(C)(C)C)C(C)(C)C21CCC1)C(=O)NS(=O)(=O)N1CCOCC1` [Compound 5, tert-butyl [(1S)-1-{[(1S)-1-{[(5R,8S)-10,10-dimethyl-8-({(1R,2S)-1-[(morpholin-4-ylsulfonyl)carbamoyl]-2-vinylcyclopropyl}carbamoyl)-7-azadispiro[3.0.4.1]dec-7-yl]carbonyl}-2,2-dimethylpropyl]carbamoyl}-2,2-dimethylpropyl]carbamate], the IC50 was 6650 nM.

In the case of `C=C[C@@H]1C[C@]1(NC(=O)[C@@H]1C[C@@]2(CN1C(=O)[C@@H](NC(=O)[C@@H](NC(=O)[C@H]1CCN1C(C)C)C1CCCCC1)C(C)(C)C)C(C)(C)C21CCC1)C(=O)NS(=O)(=O)N1CCCC1` [Compound 18, (5R,8S)-7-[(2S)-2-{[(2S)-2-cyclohexyl-2-({[(2R)-1-isopropylazetidin-2-yl]carbonyl}amino)acetyl]amino}-3,3-dimethylbutanoyl]-10,10-dimethyl-N-{(1R,2S)-1-[(pyrrolidin-1-ylsulfonyl)carbamoyl]-2-vinylcyclopropyl}-7-azadispiro[3.0.4.1]decane-8-carboxamide], the IC50 worked out at 10 nM.

Take `C=C[C@@H]1C[C@]1(NC(=O)[C@@H]1C[C@@]2(CN1C(=O)[C@@H](NC(=O)[C@@H](NC(=O)[C@@H]1CCCCN1C(C)C)C1(C)CCCCC1)C(C)(C)C)C(C)(C)C21CCC1)C(=O)NS(=O)(=O)N(CC)CC` [Compound 133, (5R,8S)-N-[(1R,2S)-1-{[(diethylamino)sulfonyl]carbamoyl}-2-vinylcyclopropyl]-7-[(2S)-2-{[(2S)-2-({[(2S)-1-isopropylpiperidin-2-yl]carbonyl}amino)-2-(1-methylcyclohexyl)acetyl]amino}-3,3-dimethylbutanoyl]-10,10-dimethyl-7-azadispiro[3.0.4.1]decane-8-carboxamide]: the IC50 was found to be 3 nM.

Turning to `[2H]C([2H])([2H])C([2H])([2H])N1CCC[C@H]1C(=O)NC(C(=O)N[C@H](C(=O)N1C[C@]2(C[C@H]1C(=O)N[C@]1(C(=O)NS(=O)(=O)N3CCCC3)C[C@H]1C=C)C(C)(C)C21CCC1)C(C)(C)C)C1CCCCC1` (stereo partly drawn) [Compound 138, (5R,8S)-7-[(2S)-2-{[(2S)-2-cyclohexyl-2-({[(2S)-1-d5-ethylpyrrolidin-2-yl]carbonyl}amino)acetyl]amino}-3,3-dimethylbutanoyl]-10,10-dimethyl-N-{(1R,2S)-1-[(pyrrolidin-1-ylsulfonyl)carbamoyl]-2-vinylcyclopropyl}-7-azadispiro[3.0.4.1]decane-8-carboxamide-d5], the IC50 turned out to be 3 nM.

For the molecule `C=C[C@@H]1C[C@]1(NC(=O)[C@@H]1C[C@@]2(CN1C(=O)[C@@H](NC(=O)[C@@H](NC(=O)[C@@H]1CCCCN1C(C)C)C1CCCCC1)C(C)(C)C)C(C)(C)C21CCC1)C(=O)NS(=O)(=O)N(CC)CC` [Compound 174, (5R,8S)-7-[(2S)-2-{[(2S)-2-cyclohexyl-2-({[(2S)-1-isopropylpiperidin-2-yl]carbonyl}amino)acetyl]amino}-3,3-dimethylbutanoyl]-N-[(1R,2S)-1-{[(diethylamino)sulfonyl]carbamoyl}-2-vinylcyclopropyl]-10,10-dimethyl-7-azadispiro[3.0.4.1]decane-8-carboxamide], the IC50 stood at 0.6 nM.

On to `C=C[C@@H]1C[C@]1(NC(=O)[C@@H]1C[C@@]2(CN1C(=O)[C@@H](NC(=O)[C@@H](NC(=O)[C@@H]1CCCCN1C(C)C)C1CCCCC1)C(C)(C)C)C(C)(C)C21CCC1)C(=O)NS(=O)(=O)N(C)CCOC` [Compound 56, (5R,8S)-7-[(2S)-2-{[(2S)-2-cyclohexyl-2-({[(2S)-1-isopropylpiperidin-2-yl]carbonyl}amino)acetyl]amino}-3,3-dimethylbutanoyl]-N-[(1R,2S)-1-({[(2-methoxyethyl)(methyl)amino]sulfonyl}carbamoyl)-2-vinylcyclopropyl]-10,10-dimethyl-7-azadispiro[3.0.4.1]decane-8-carboxamide], for which the IC50 turned out to be 8 nM.

(Values after patent publication US8613914B2, “Peptidomimetic sulfamide compounds and antiviral uses thereof” (Novartis AG, priority 2009, dated 2013).)
